# According to patent US11285132B2, “Uses of indolinone compounds” (Oncternal Therapeutics, Inc., priority 2016, dated 2022):
# Key:
# [1] = test system: MOLM-16; assay: 72 hr CellTiter-Glo, AML cell line; assay type: cell-based; settings: MOLM16
# [2] = test system: ML-2; assay: 72 hr CellTiter-Glo, AML cell line; assay type: cell-based; settings: Homo sapiens
# [3] = test system: OCI-Ly19; assay: 72 hr CellTiter-Glo, DLBCL cell line; assay type: cell-based; settings: Homo sapiens
# [4] = test system: myeloid cell lines (HL-60, Kasumi-1, ML-2, MOLM-13, MOLM-16, and THP-1); assay: Viability and apoptosis in myeloid cell lines; assay type: cell-based
# From the text: TK216 also had anti-proliferative effects, causes cell cycle arrest, and induces apoptosis in a panel of AML and DLBCL cell lines with deregulated ETS family members. […] In vivo efficacy studies in xenograft models of DLBCL indicated anti-tumor activity consistent with in vitro findings, confirming the utility and efficacy of TK216 in the treatment of AML and DLBCL by targeting the aberrant expression and translocations in the ETS-family of transcription factors, which contribute to the pathogenesis of the disease.
# [5] = test system: DLBCL cell lines; assay: Median-effect combination analysis (CalcuSyn, Chou/Talalay CI); assay type: cell-based
# From the text: The median-effect analysis was used to determine synergism, antagonism, or additivity of TK216 when combined with ABT199 (BCL-2i) and ACP196 (BTKi).
# The inhibition of the EWS-FLI1 oncogene offers a promising approach for the treatment of Ewing Sarcoma, e.g., relapsed/refractory Ewing Sarcoma.
# [6] = test system: EWS-FLI1 and RNA helicase A; assay: EWS-FLI1 protein interaction (FLI1 immunoprecipitation in A4573); assay type: binding; settings: preclinical potency model
# From the text: TK216 is a first in class, small molecule that directly binds EWS-FLI1 inhibiting the biological activity of ETS-family transcription factor oncoproteins and is currently under clinical investigation in patients with Ewing sarcoma.
# FLI1 was immunoprecipitated following treatment with TK216 or DMSO control in A4573 (see FIG. 2).
# [7] = molecular target: T1, SPIB to DDX5 (Homo sapiens, UniProt Q01892); assay: Co-IP of SPIB with helicases in ABC DLBCL cell lines; assay type: cell-based; settings: 500 nM, 4-10 h
# T1 construct: endogenous in cells
# T1 sequence (Q01892 whole entry): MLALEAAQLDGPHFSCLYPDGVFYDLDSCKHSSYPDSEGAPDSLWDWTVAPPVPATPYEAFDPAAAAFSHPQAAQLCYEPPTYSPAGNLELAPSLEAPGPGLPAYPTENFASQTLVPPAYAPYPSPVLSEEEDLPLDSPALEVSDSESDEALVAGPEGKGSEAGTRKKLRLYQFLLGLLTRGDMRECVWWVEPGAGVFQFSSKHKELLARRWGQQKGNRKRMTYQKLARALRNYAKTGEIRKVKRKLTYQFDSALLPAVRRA
# From the text: (§1) With the aim to understand the mechanism of action of YK-4-279 and TK-216, the baseline RNA expression levels of the different ETS factors were correlated with sensitivity to the drugs. SPIB was the gene presenting the most significant negative correlation with both YK-4-279 and TK-216, especially among the ABC DLBCL cell lines (P<0.05). SPIB is a known oncogene for ABC DLBCL (Lenz et al, PNAS 2008) and is involved in the response to lenalidomide in ABC DLBCL (Yang et al, Cancer Cell 2012). YK-4-279 inhibits the binding of EWS1-FLI1 to the helicases RHA and DDX5 (Selvanathan et al, PNAS 2012). Thus, it was assessed whether YK-4-279 and TK-216 can have a similar effect on SPIB and whether they induce cellular effects similar to lenalidomide. […] In ABC DLBCL, the ETS inhibitor YK-4-279 and its clinical derivative TK-216 interfere with SPIB and helicases involved in RNA editing. Moreover, both compounds act similarly to lenalidomide inhibiting IRF4 and upregulating IRF7 and synergize with the IMID in both ABC DLBCL and MCL.
# [8] = molecular target: T2, SPIB to RHA (Homo sapiens, UniProt Q01892); assay: as above; assay type: cell-based; settings: 500 nM, 4-10 h
# T2 construct: endogenous in cells
# T2 sequence (Q01892 whole entry): as above
# From the text: as §1
# [9] = test system: HBL-1; assay: 72 hr CellTiter-Glo, DLBCL cell line; assay type: cell-based; settings: HBL1
# [10] = test system: OCI-Ly18; assay: 72 hr CellTiter-Glo, DLBCL cell line; assay type: cell-based; settings: Homo sapiens
# [11] = test system: 56 lymphoma cell lines; assay: MTT proliferation, 56 lymphoma cell lines, 72 h; assay type: cell-based; settings: 95% C.I.: 367-506, read-out: median IC50
# Method: (§2) 56 lymphoma cell lines [27 diffuse large B cell lymphoma (DLBCL); 10 mantle cell lymphoma; 6 marginal zone lymphoma; 5 anaplastic large T-cell lymphoma; 8 others] were exposed to TK-216 increasing doses for 72 h using a Tecan D300e Digital Dispenser and 384 well plates. Cell proliferation was measured with MTT. In vivo study was done in NOD-SCID mice; treatments were started with approximately sc 60 mm3 tumor volumes. Sensitivity was not affected by the lymphoma cell of origin (B vs T; activated B cell type DLBCL versus germinal center type DLBCL) or MYC and TP53 status. There was a non-statistically significant trend for lower sensitivity in cell lines bearing BCL2 chromosomal translocation (P=0.07, DLBCL only; P=0.06, all cell lines).
# [12] = test system: U2932; assay: 72 hr CellTiter-Glo, DLBCL cell line; assay type: cell-based; settings: Homo sapiens
# [13] = test system: TMD8 cells xenografts; assay: TMD8 ABC-DLBCL xenograft in NOD-SCID mice; assay type: in vivo; settings: 100 mg/Kg, BID
# Method: NOD-Scid mice subcutaneously inoculated with TMD8 cells (15×10^6) were split in two groups respectively treated with TK-216 (100 mg/kg, BID, po, n=9) and control vehicle (n=10). In each box-plot, the line in the middle of the box represents the median and the box extends from the 25th to the 75th percentile (interquartile range, IQ); the whiskers extend to the upper and lower adjacent values (i.e., ±1.5 IQ).
# as §2
# The latter synergism could be linked to the previously mentioned negative trend between TK-216 IC50 values and the presence of BCL2 translocation.
# (§3) Cell lines were exposed to YK-4-279 or TK-216, alone or in combination with other compounds, for 72 h using a Tecan D300e Digital Dispenser and 96 well plates. Cell proliferation was measured with MTT. Synergy was determined with the Chou-Talalay combination index. Gene expression profiling (GEP) was performed with the Illumina HumanHT 12 Expression BeadChips. In vivo studies were done in NOD-SCID mice and treatments started with 60 mm3 tumor volumes sc.
# [14] = test system: TMD-8 tumors; assay: TMD-8 DLBCL-ABC xenograft model in nude mice; assay type: in vivo
# Method: The anti-tumor activity of TK216 was assessed in nude mice harboring TMD-8 tumors, a DLBCL-ABC xenograft model. TK216 was administered orally as a solution at 100 mg/kg BID for 13 days.
# [15] = test system: two MCL cell lines; assay: Combination with lenalidomide in MCL cell lines; assay type: cell-based
# Method: as §3
# Since lenalidomide is active in mantle cell lymphoma (MCL), the synergism of the combination of TK-216 and lenalidomide was confirmed also in two MCL cell lines.
# [16] = test system: WSU-DLCL2; assay: 72 hr CellTiter-Glo, DLBCL cell line; assay type: cell-based; settings: Homo sapiens, WSUDLCL2
compound,measurement,setting,value
"O=C(CC1(O)C(=O)Nc2c(Cl)ccc(Cl)c21)c1ccc(C2CC2)cc1 (centres unmarked) [TK216, 4,7-Dichloro-3-(2-(4-cyclopropylphenyl)-2-oxoethyl)-3-hydroxyindolin-2-one]",IC50,[1],129 nM
same,IC50,[2],291 nM
same,IC50,[3],106 nM
same,cellular viability,[4],decrease in cellular viability
same,apoptosis of cells,[4]; 48 hours,induced dose-dependent apoptosis
same,"combination effect with ABT199 (BCL-2i), Combination Index",[5]; combined with ABT199,synergy
same,"combination effect with ACP196 (BTKi), Combination Index",[5]; combined with ACP196,synergy
same,binding between EWS-FLI1 and RNA helicase A,[6],blocked the binding
same,binding of SPIB to DDX5,[7],"to a lesser extent, to DDX5 was decreased"
same,binding of SPIB to RHA,[8],decreased
same,IC50,[9],304 nM
same,IC50,[10],95 nM
same,IC50,[11],449 nM
same,IC50,[12],127 nM
same,reduction in tumor volume at D11,"[13]; D11, P<0.01 vs control group",four-times
same,tumor growth compared with control group,[13]; n=9,reduction in tumor growth
same,tumor growth inhibition,"[14]; 100 mg/kg BID orally, 13 days, vs vehicle control",77%
same,tolerability,"[14]; daily oral administration, xenograft models of DLBCL",well-tolerated
same,combination of TK-216 and lenalidomide,[15],synergism
same,IC50,[16],897 nM
